In PMC10449621, “Engineering cellular communication between light-activated synthetic cells and bacteria” (Nature Chemical Biology, 2023):
Values joined by “and” are separate entries in the source; they are usually repeats but may differ in a detail not shown here. Equal entries are not always repeated.

Assays:
Format in all cases: cell-based, E. coli XL10-Gold
[1] = test system: BjaRWT (B0034|ATG) receiver cells (pSB1A3–bjaR–gfp); experiment: BjaR receiver cell AHSL dose-response (gfp reporter, plate reader)
Text: Next, we set out to establish a unidirectional communication pathway by reconstituting the BjaI and BjaR QS machinery, separately, within synthetic cells and E. coli, respectively. As a starting point, IV-HSL-responsive receiver cells were created by transforming E. coli XL10-Gold cells with a reporter plasmid, pSB1A3–bjaR–gfp[28]. This plasmid contained a bjaR gene under the control of a constitutively active J23100 promoter and a gfp gene under the control of a pBjaR promoter. The pBjaR promoter was formed by substituting the lux-box of the pLux promoter with the BjaR-binding site (Supplementary Fig. 10). […] Although this reporter plasmid had been characterized previously, gfp expression was initiated with C4-HSL rather than the cognate ligand, IV-HSL. Thus, we first evaluated the dose–response relationship between synthetic IV-HSL (synthesis described in Methods) and GFP production by BjaR receiver cells. The cells were grown in M9 minimal media to an optical density at 600 nm (OD600) = 0.05, then transferred to a 96-well plate containing IV-HSL and incubated at 37 °C, 800 r.p.m., for 4 h. […] To elucidate the root cause of the high background fluorescence, a BjaRKO variant of the reporter plasmid was constructed. […] Therefore, the high OFF-state was attributed to BjaR-mediated transcription activation in the absence of IV-HSL, rather than host transcription factors recognizing the pBjaR promoter, or transcription factor independent gfp expression.
(§1) The BjaR reporter plasmids were retransformed into E. coli XL10-Gold cells for each experiment. A single colony was used to inoculate 5 ml LB + Amp media and incubated at 37 °C, 225 r.p.m. overnight. Overnight cultures were diluted 1/250 or 1/500 in 5 ml M9 minimal media + Amp and incubated at 37 °C, 225 r.p.m. for 3 h and 45 min (until OD600 = ~0.075). Cultures were diluted down to OD600 = 0.05 with M9 minimal media + Amp, and 200 µl was added to wells of a 96-well plate containing 1 µl IV-HSL dissolved in DMSO or 1 µl BjaI CFPS reactions (IV-HSL concentrations obtained from serial dilution from 63.2 µM to 632 pM; final DMSO concentration = 0.5%). Cells were incubated at 37 °C, 800 r.p.m., in a thermomixer with a heated lid for 4 h. Fluorescence and OD600 were measured in a Tecan M1000 infinite plate reader (excitation, 488 nm; emission, 510 nm; bandwidth, 5 nm; gain, 101 and z position, 21,311 µm). The dose–response curves were fitted to the function indicated by Eq. (1), where a = maximal fluorescence output, b = basal fluorescence output, X = concentration of AHSL, GFP = fluorescence at the given condition, EC50 = AHSL at 50% maximal fluorescence output and h = hill coefficient. EC50 and h were derived using the nonlinear regression model based on Eq. (1), in MATLAB. A summary of the dose–response data is available in Supplementary Table 1.1 GFP=b+a−b/1+10^logEC50−X×h

[2] = test system: BjaRWT (B0034|CTG) receiver cells; experiment: as above
Text: These findings are consistent with the predicted translation initiation rates of the respective sequences—translation from the BBa_B0033 RBS provides 1% of protein yield compared to the BBa_B0034 RBS, just as an CTG start codon provides 1% of the protein yield compared to an ATG start codon[30],[31]. This also offers support as to why the ON-state gfp expression level increased in variants with a tighter OFF-state; more cellular resources were available for GFP synthesis when comparatively fewer were allocated to BjaR synthesis. To elucidate the impact of the S107R variant on gene circuit performance, we introduced the S107R variant alone back into the bjaRWT gene, in the context of the BBa_B0033 RBS background.
as §1

[3] = test system: BjaRS107R (B0033|ATG) receiver cells; experiment: IV-HSL biosynthesis by BjaI-expressing synthetic cells (GUVs), quantified with receiver cells; details: 10 nM IV-HSL control, Dilution -, sheet 4d

CC(C)CC(=O)N[C@H]1CCOC1=O [IV-HSL, N-isovaleryl-L-homoserine lactone]
IV-HSL concentration at which gfp expression saturated ([1]; 4 h, 37 °C): ~ 100 nM | lowest IV-HSL concentration giving increased gfp expression ([1]; 4 h, 37 °C): 100 pM | EC50 ([1]; Escherichia coli, IV-HSL-activated gfp expression, M9 minimal media, 37 °C, 4 h): 1 ± 0.11 nM | GFP ([1]; Log([ASHL]) -6.5): 5520 and 5263 and 4853 | Mean normalised fluorescence ([1]; Log([ASHL]) -6.5): 51540.5 | Normalised fluorescence ([1]; Log([ASHL]) -6.5): 52896 and 49381.5 and 52343.9 | GFP ([1]; Log([ASHL]) -7): 4847 and 5318 and 4599 | Mean normalised fluorescence ([1]; Log([ASHL]) -7): 48761.2 | Normalised fluorescence ([1]; Log([ASHL]) -7): 46176.2 and 48745.4 and 51362.1 | GFP ([1]; Log([ASHL]) -7.5): 4806 and 4967 and 4256 | Mean normalised fluorescence ([1]; Log([ASHL]) -7.5): 50366.9 | Normalised fluorescence ([1]; Log([ASHL]) -7.5): 49622.2 and 48407.5 and 53071.1 | GFP ([1]; Log([ASHL]) -8): 4739 and 4412 and 4755 | Mean normalised fluorescence ([1]; Log([ASHL]) -8): 51222.6 | Normalised fluorescence ([1]; Log([ASHL]) -8): 48553.6 and 53423.6 and 51690.6 | GFP ([1]; Log([ASHL]) -8.5): 4235 and 3971 and 4223 | Mean normalised fluorescence ([1]; Log([ASHL]) -8.5): 46308.3 | Normalised fluorescence ([1]; Log([ASHL]) -8.5): 43174.3 and 50090 and 45660.8 | GFP ([1]; Log([ASHL]) -9): 3046 and 2749 and 2957 | Mean normalised fluorescence ([1]; Log([ASHL]) -9): 32989.1 | Normalised fluorescence ([1]; Log([ASHL]) -9): 31098.3 and 35762 and 32107 | GFP ([1]; Log([ASHL]) -9.5): 2089 and 1773 and 1816 | Mean normalised fluorescence ([1]; Log([ASHL]) -9.5): 20544.4 | Normalised fluorescence ([1]; Log([ASHL]) -9.5): 19459.5 and 23021.7 and 19152 | GFP ([1]; Log([ASHL]) -10): 1495 and 1301 and 1477 | Mean normalised fluorescence ([1]; Log([ASHL]) -10): 15546.1 | Normalised fluorescence ([1]; Log([ASHL]) -10): 14827.9 and 16425.7 and 15384.6 | GFP ([1]; Log([ASHL]) -10.5): 1424 and 1254 and 1414 | Mean normalised fluorescence ([1]; Log([ASHL]) -10.5): 15128.3 | Normalised fluorescence ([1]; Log([ASHL]) -10.5): 14176.3 and 15945.9 and 15262.6 | GFP ([1]; Log([ASHL]) -11): 1414 and 1258 and 1391 | Mean normalised fluorescence ([1]; Log([ASHL]) -11): 15383.1 | Normalised fluorescence ([1]; Log([ASHL]) -11): 14419.4 and 15744.7 and 15985.4 | GFP ([1]; Log([ASHL]) -11.5): 1447 and 1104 and 1274 | Mean normalised fluorescence ([1]; Log([ASHL]) -11.5): 15262.1 | Normalised fluorescence ([1]; Log([ASHL]) -11.5): 15049.3 and 14629.6 and 16107.4 | EC50 ([2]; Escherichia coli, IV-HSL-activated gfp expression): 2.68 ± 0.48 nM | hill coefficient ([2]; IV-HSL dose-response curve): 1.41 | GFP ([2]; Log([ASHL]) -6.5): 43330 and 36104 and 38058 | Mean normalised fluorescence ([2]; Log([ASHL]) -6.5): 201726 | Normalised fluorescence ([2]; Log([ASHL]) -6.5): 210214 and 194525 and 200438 | GFP ([2]; Log([ASHL]) -7): 48602 and 34441 and 36003 | Mean normalised fluorescence ([2]; Log([ASHL]) -7): 195635 | Normalised fluorescence ([2]; Log([ASHL]) -7): 221814 and 183269 and 181822 | GFP ([2]; Log([ASHL]) -7.5): 42248 and 34562 and 36913 | Mean normalised fluorescence ([2]; Log([ASHL]) -7.5): 179671 | Normalised fluorescence ([2]; Log([ASHL]) -7.5): 188397 and 176029 and 174588 | GFP ([2]; Log([ASHL]) -8): 35155 and 35886 and 43108 | Mean normalised fluorescence ([2]; Log([ASHL]) -8): 165401 | Normalised fluorescence ([2]; Log([ASHL]) -8): 168235 and 168127 and 159840 | GFP ([2]; Log([ASHL]) -8.5): 36208 and 37675 and 33945 | Mean normalised fluorescence ([2]; Log([ASHL]) -8.5): 139606 | Normalised fluorescence ([2]; Log([ASHL]) -8.5): 151871 and 150220 and 116729 | Mean normalised fluorescence ([2]; Log([ASHL]) -9): 82973.4 | Mean normalised fluorescence ([2]; Log([ASHL]) -9.5): 25740.3 | Mean normalised fluorescence ([2]; Log([ASHL]) -10): 6739.8 | GFP ([2]; Log([ASHL]) -10.5): 896 and 846 and 722 | Mean normalised fluorescence ([2]; Log([ASHL]) -10.5): 2692.26 | Normalised fluorescence ([2]; Log([ASHL]) -10.5): 2989.77 and 2763.44 and 2323.58 | GFP ([2]; Log([ASHL]) -11): 668 and 631 and 690 | Mean normalised fluorescence ([2]; Log([ASHL]) -11): 2167.6 | Normalised fluorescence ([2]; Log([ASHL]) -11): 2233.16 and 2007.95 and 2261.7 | GFP ([2]; Log([ASHL]) -11.5): 630 and 671 and 595 | Mean normalised fluorescence ([2]; Log([ASHL]) -11.5): 2035.58 | Normalised fluorescence ([2]; Log([ASHL]) -11.5): 2037.65 and 2202.61 and 1866.48 | Mean normalised fluorescence [3]: 190979 | Normalised fluorescence ([3]; Expt1-3): 175106 and 224036 and 173796 | GFP ([3]; raw fluorescence ex 488/em 510 nm, Expt1-3): 33963 and 48451 and 56546
